Data: PubChem BioAssay AID2060490 (Molecular Pharmacology Branch, DTP, NCI, 2025)

Test system: 885512-296-R-J2-PDC complex spheroid viability
Assay: Anticancer human tumor 885512-296-R-J2-PDC patient-derived breast carcinoma cell line growth inhibition [GQUAD]
Details: for IC50: curve of first compound; for viability, T/C: stronger effect = lower value
In short: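 Tumor cells were grown as complex spheroids with HUVEC endothelial cells and mesenchymal stem cells as stroma. G-quadruplex stabilizers were combined with targeted agents over half-log dilutions from near the clinical Cmax, or from 10 microM.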

[1] = second compound 0.0316 µM, first compound 0.000999 µM
[2] = second compound 0.0316 µM, first compound 0.00316 µM
[3] = second compound 0.0316 µM, first compound 0.00999 µM
[4] = second compound 0.0316 µM, first compound 0.0316 µM
[5] = second compound 0.0316 µM, first compound 0.0999 µM
[6] = second compound 0.0316 µM, first compound 0.316 µM
[7] = second compound 0.1 µM, first compound 0.000999 µM
[8] = second compound 0.1 µM, first compound 0.00316 µM
[9] = second compound 0.1 µM, first compound 0.00999 µM
[10] = second compound 0.1 µM, first compound 0.0316 µM
[11] = second compound 0.1 µM, first compound 0.0999 µM
[12] = second compound 0.1 µM, first compound 0.316 µM
[13] = second compound 0.316 µM, first compound 0.000999 µM
[14] = second compound 0.316 µM, first compound 0.00316 µM
[15] = second compound 0.316 µM, first compound 0.00999 µM
[16] = second compound 0.316 µM, first compound 0.0316 µM
[17] = second compound 0.316 µM, first compound 0.0999 µM
[18] = second compound 0.316 µM, first compound 0.316 µM
[19] = second compound 1 µM, first compound 0.000999 µM
[20] = second compound 1 µM, first compound 0.00316 µM
[21] = second compound 1 µM, first compound 0.00999 µM
[22] = second compound 1 µM, first compound 0.0316 µM
[23] = second compound 1 µM, first compound 0.0999 µM
[24] = second compound 1 µM, first compound 0.316 µM
[25] = second compound 3.16 µM, first compound 0.000999 µM
[26] = second compound 3.16 µM, first compound 0.00316 µM
[27] = second compound 3.16 µM, first compound 0.00999 µM
[28] = second compound 3.16 µM, first compound 0.0316 µM
[29] = second compound 3.16 µM, first compound 0.0999 µM
[30] = second compound 3.16 µM, first compound 0.316 µM
[31] = second compound 10 µM, first compound 0.000999 µM
[32] = second compound 10 µM, first compound 0.00316 µM
[33] = second compound 10 µM, first compound 0.00999 µM
[34] = second compound 10 µM, first compound 0.0316 µM
[35] = second compound 10 µM, first compound 0.0999 µM
[36] = second compound 10 µM, first compound 0.316 µM
[37] = second compound 0.0316 µM, first compound 0.1 µM
[38] = second compound 0.0316 µM, first compound 1 µM
[39] = second compound 0.0316 µM, first compound 3.16 µM
[40] = second compound 0.0316 µM, first compound 10 µM
[41] = second compound 0.1 µM, first compound 0.1 µM
[42] = second compound 0.1 µM, first compound 1 µM
[43] = second compound 0.1 µM, first compound 3.16 µM
[44] = second compound 0.1 µM, first compound 10 µM
[45] = second compound 0.316 µM, first compound 0.1 µM
[46] = second compound 0.316 µM, first compound 1 µM
[47] = second compound 0.316 µM, first compound 3.16 µM
[48] = second compound 0.316 µM, first compound 10 µM
[49] = second compound 1 µM, first compound 0.1 µM
[50] = second compound 1 µM, first compound 1 µM
[51] = second compound 1 µM, first compound 3.16 µM
[52] = second compound 1 µM, first compound 10 µM
[53] = second compound 3.16 µM, first compound 0.1 µM
[54] = second compound 3.16 µM, first compound 1 µM
[55] = second compound 3.16 µM, first compound 3.16 µM
[56] = second compound 3.16 µM, first compound 10 µM
[57] = second compound 10 µM, first compound 0.1 µM
[58] = second compound 10 µM, first compound 1 µM
[59] = second compound 10 µM, first compound 3.16 µM
[60] = second compound 10 µM, first compound 10 µM
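Further: spheroids exposed to the compounds for one week.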
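Wherever viability, T/C is given: percent of tumor spheroid viability relative to DMSO vehicle control wells.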

With `CCc1c2c(nc3ccc(O)cc13)-c1cc3c(c(=O)n1C2)COC(=O)[C@]3(O)CC` + CN(C)c1ccc(Nc2c3ccc(NC(=O)CCN4CCCC4)cc3nc3cc(NC(=O)CCN4CCCC4)ccc23)cc1 the IC50 (second compound 0.0316 µM) was < 0.999 nM, the IC50 (second compound 0.1 µM) was < 0.999 nM and the IC50 (second compound 0.316 µM) was < 0.999 nM. For the same molecule, the IC50 (second compound 1 µM) was < 0.999 nM, the IC50 (second compound 3.16 µM) was < 0.999 nM and the IC50 (second compound 10 µM) was < 0.999 nM. It also gave a viability, T/C [1] of 18.3%, a viability, T/C [2] of 6.69% and a viability, T/C [3] of 3.15%. For the same molecule, the viability, T/C [4] was 1.94%, the viability, T/C [5] was 1.66% and the viability, T/C [6] was 1.39%. It also gave a viability, T/C [7] of 15.7%, a viability, T/C [8] of 7.02% and a viability, T/C [9] of 3.83%. The viability, T/C [10] was 2.59%, the viability, T/C [11] was 1.42% and the viability, T/C [12] was 1.57%. The viability, T/C [13] was 13.1%, the viability, T/C [14] was 7.17% and the viability, T/C [15] was 3.49%. It also gave a viability, T/C [16] of 2.63%, a viability, T/C [17] of 1.58% and a viability, T/C [18] of 1.1%. It also gave a viability, T/C [19] of 19.3%, a viability, T/C [20] of 6.88% and a viability, T/C [21] of 3.62%. The viability, T/C [22] was 2.24%, the viability, T/C [23] was 1.82% and the viability, T/C [24] was 1.23%. For the same molecule, the viability, T/C [25] was 18.7%, the viability, T/C [26] was 11.3% and the viability, T/C [27] was 4.83%. For the same molecule, the viability, T/C [28] was 2.33%, the viability, T/C [29] was 1.61% and the viability, T/C [30] was 1.26%. It also gave a viability, T/C [31] of 12.8%, a viability, T/C [32] of 10.4% and a viability, T/C [33] of 6.78%. The viability, T/C [34] was 3.28%, the viability, T/C [35] was 1.43% and the viability, T/C [36] was 0.56%.
`CCc1c2c(nc3ccc(O)cc13)-c1cc3c(c(=O)n1C2)COC(=O)[C@]3(O)CC` + Cc1cnc(CNC(=O)c2c(=O)c3ccc(N4CCCN(C)CC4)nc3n3c2sc2ccccc23)cn1 was tested, and the IC50 (second compound 0.0316 µM) was < 0.999 nM, the IC50 (second compound 0.1 µM) was < 0.999 nM and the IC50 (second compound 0.316 µM) was < 0.999 nM. For the same molecule, the IC50 (second compound 1 µM) was < 0.999 nM, the IC50 (second compound 3.16 µM) was < 0.999 nM and the IC50 (second compound 10 µM) was < 0.999 nM. It also gave a viability, T/C [1] of 17.9%, a viability, T/C [2] of 8.3% and a viability, T/C [3] of 5.81%. The viability, T/C [4] was 3.27%, the viability, T/C [5] was 2% and the viability, T/C [6] was 1.37%. For the same molecule, the viability, T/C [7] was 17%, the viability, T/C [8] was 10.5% and the viability, T/C [9] was 6.32%. It also gave a viability, T/C [10] of 4.29%, a viability, T/C [11] of 2.34% and a viability, T/C [12] of 1.47%. The viability, T/C [13] was 16.3%, the viability, T/C [14] was 12.1% and the viability, T/C [15] was 9.75%. For the same molecule, the viability, T/C [16] was 4.25%, the viability, T/C [17] was 1.6% and the viability, T/C [18] was 1.03%. It also gave a viability, T/C [19] of 16.7%, a viability, T/C [20] of 14.3% and a viability, T/C [21] of 7.19%. The viability, T/C [22] was 1.29%, the viability, T/C [23] was 0.07% and the viability, T/C [24] was 0.1%. The viability, T/C [25] was 26.4%, the viability, T/C [26] was 19.8% and the viability, T/C [27] was 2.82%. The viability, T/C [28] was 0.24%, the viability, T/C [29] was 0.06% and the viability, T/C [30] was 0.1%. It also gave a viability, T/C [31] of 0.08%, a viability, T/C [32] of 0.14% and a viability, T/C [33] of 0.13%. The viability, T/C [34] was 0.1%, the viability, T/C [35] was 0.11% and the viability, T/C [36] was 0.13%.
`COc1cc(C2c3cc4c(cc3C(OC3OC5COC(C)OC5C(O)C3O)C3COC(=O)C23)OCO4)cc(OC)c1O` (stereo not drawn) + Cc1cnc(CNC(=O)c2c(=O)c3ccc(N4CCCN(C)CC4)nc3n3c2sc2ccccc23)cn1 was tested, and the IC50 (second compound 0.0316 µM) was 318 nM, the IC50 (second compound 0.1 µM) was 187 nM and the IC50 (second compound 0.316 µM) was < 31.6 nM. The IC50 (second compound 1 µM) was < 31.6 nM, the IC50 (second compound 3.16 µM) was < 31.6 nM and the IC50 (second compound 10 µM) was < 31.6 nM. The viability, T/C [4] was 80.8%, the viability, T/C [37] was 81% and the viability, T/C [6] was 48%. It also gave a viability, T/C [38] of 22.8%, a viability, T/C [39] of 13.4% and a viability, T/C [40] of 10.5%. For the same molecule, the viability, T/C [10] was 57.2%, the viability, T/C [41] was 55.8% and the viability, T/C [12] was 45%. It also gave a viability, T/C [42] of 28%, a viability, T/C [43] of 13.7% and a viability, T/C [44] of 11.4%. The viability, T/C [16] was 26%, the viability, T/C [45] was 34.3% and the viability, T/C [18] was 23.3%. For the same molecule, the viability, T/C [46] was 24.1%, the viability, T/C [47] was 16.4% and the viability, T/C [48] was 8.65%. It also gave a viability, T/C [22] of 29%, a viability, T/C [49] of 21.8% and a viability, T/C [24] of 23.6%. For the same molecule, the viability, T/C [50] was 21.1%, the viability, T/C [51] was 21.3% and the viability, T/C [52] was 14.2%. It also gave a viability, T/C [28] of 34%, a viability, T/C [53] of 28.4% and a viability, T/C [30] of 29.6%. The viability, T/C [54] was 23.5%, the viability, T/C [55] was 22.3% and the viability, T/C [56] was 17.7%. The viability, T/C [34] was 0.09%, the viability, T/C [57] was 0.17% and the viability, T/C [36] was 0.18%. The viability, T/C [58] was 0.15%, the viability, T/C [59] was 0.16% and the viability, T/C [60] was 0.18%.
With `CC1COCCN1c1cc(-c2ccnn2C)c2ccnc(-c3ccn[nH]3)c2n1` (stereo not drawn) + Cc1[nH]c2ccc(F)cc2c1-c1nc2c3cccnc3c3ncccc3c2[nH]1 the IC50 (second compound 0.0316 µM) was < 31.6 nM, the IC50 (second compound 0.1 µM) was 36 nM and the IC50 (second compound 0.316 µM) was < 31.6 nM. The IC50 (second compound 1 µM) was < 31.6 nM, the IC50 (second compound 3.16 µM) was < 31.6 nM and the IC50 (second compound 10 µM) was < 31.6 nM. It also gave a viability, T/C [4] of 44.6%, a viability, T/C [37] of 7.14% and a viability, T/C [6] of 3.23%. The viability, T/C [38] was 2.97%, the viability, T/C [39] was 4.21% and the viability, T/C [40] was 7.57%. For the same molecule, the viability, T/C [10] was 55.6%, the viability, T/C [41] was 5.92% and the viability, T/C [12] was 3.53%. For the same molecule, the viability, T/C [42] was 3.59%, the viability, T/C [43] was 5.52% and the viability, T/C [44] was 6.77%. The viability, T/C [16] was 37.9%, the viability, T/C [45] was 3.68% and the viability, T/C [18] was 2.99%. The viability, T/C [46] was 2.87%, the viability, T/C [47] was 5.08% and the viability, T/C [48] was 7.25%. It also gave a viability, T/C [22] of 5.35%, a viability, T/C [49] of 3.41% and a viability, T/C [24] of 2.46%. The viability, T/C [50] was 2.67%, the viability, T/C [51] was 5.38% and the viability, T/C [52] was 5.76%. It also gave a viability, T/C [28] of 1.59%, a viability, T/C [53] of 1.58% and a viability, T/C [30] of 1.11%. For the same molecule, the viability, T/C [54] was 1.8%, the viability, T/C [55] was 3.23% and the viability, T/C [56] was 3.81%. The viability, T/C [34] was 1.17%, the viability, T/C [57] was 1.15% and the viability, T/C [36] was 1.51%. It also gave a viability, T/C [58] of 2.19%, a viability, T/C [59] of 2.68% and a viability, T/C [60] of 4.02%.
